Experimental data from patent publication US6737383B1, “Herbicidal oxadiazolidines” (priority 1999, dated 2004).

What was measured:
surinam grass = assay: Test B pre/postemergence surinam grass; format: in vivo, Brachiaria decumbens
Method in brief: (§1)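 Test chemicals in a non-phytotoxic solvent mixture with surfactant were sprayed preemergence onto planted seeds and postemergence onto plants 2 to 18 cm tall (1- to 4-leaf stage). After twelve to sixteen days in a greenhouse, injury was visually rated against untreated controls from 0 (no effect) to 10 (complete control).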

soybean = assay: Test B pre/postemergence soybean; format: in vivo, Glycine max
Method in brief: as §1

bedstraw = assay: Test B pre/postemergence bedstraw; format: in vivo, Galium aparine; details: Preemergence, Rate 62 g/ha; scale 0 to 10 (0 no effect, 10 complete control)
Method in brief: as §1

duck salad = assay: Test B flood test duck salad; format: in vivo, Heteranthera limosa
Method in brief: (§2)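 Each value is a visual injury score relative to controls, with 10 meaning complete control and 0 no effect. Evaluation took place twelve to sixteen days after the 2-leaf-stage plants were treated and kept in the greenhouse.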

morningglory = assay: Test B pre/postemergence morningglory; format: in vivo, Ipomoea hederacea
Method in brief: as §1

bamyardgrass = assay: Test B flood test barnyardgrass; format: in vivo, Echinochloa crus-galli
Method in brief: as §2

purple nutsedge = assay: Test B pre/postemergence purple nutsedge; format: in vivo, Cyperus rotundus
Method in brief: as §1

wild oat = assay: Test B pre/postemergence wild oat; format: in vivo, Avena fatua
Method in brief: as §1

wheat = assay: Test B pre/postemergence wheat; format: in vivo, Triticum aestivum
Method in brief: as §1

sugar beet = assay: Test B pre/postemergence sugar beet; format: in vivo, Beta vulgaris
Method in brief: as §1

velvetleaf = assay: Test B pre/postemergence velvetleaf; format: in vivo, Abutilon theophrasti
Method in brief: as §1

smallflower flatsedge = assay: Test B flood test smallflower flatsedge; format: in vivo, Cyperus difformis
Method in brief: as §2

corn = assay: Test B pre/postemergence corn; format: in vivo, Zea mays
Method in brief: as §1

pigweed = assay: Test B pre/postemergence pigweed; format: in vivo, Amaranthus retroflexus
Method in brief: as §1

blackgrass = assay: Test B pre/postemergence blackgrass; format: in vivo, Alopecurus myosuroides
Method in brief: as §1

rice = assay: Test B flood test rice; format: in vivo, Oryza sativa
Method in brief: as §2

giant foxtail = assay: Test B pre/postemergence giant foxtail; format: in vivo, Setaria faberii
Method in brief: as §1

crabgrass = assay: Test B pre/postemergence crabgrass; format: in vivo, Digitaria sanguinalis
Method in brief: as §1

cocklebur = assay: Test B pre/postemergence cocklebur; format: in vivo, Xanthium strumarium
Method in brief: as §1

rape = assay: Test B pre/postemergence rape; format: in vivo, Brassica napus
Method in brief: as §1

[1] = Postemergence, Rate 62 g/ha, scale of 0 to 10, 0 is no effect, 10 is complete control
[2] = Postemergence, Rate 125 g/ha, scale of 0 to 10 where 0 is no effect and 10 is complete control
[3] = Postemergence, Rate 250 g/ha, scale of 0 to 10, 0 is no effect, 10 is complete control
[4] = Postemergence, Rate 500 g/ha, scale of 0 to 10 where 0 is no effect and 10 is complete control
[5] = Preemergence, Rate 62 g/ha, scale 0 to 10 (0 no effect, 10 complete control)
[6] = Preemergence, Rate 125 g/ha, scale of 0 to 10 where 0 is no effect and 10 is complete control
[7] = Preemergence, Rate 500 g/ha, scale of 0 to 10 where 0 is no effect and 10 is complete control
[8] = Rate 62 g/ha, flood test species, Pre-emergence, visual evaluation after twelve to sixteen days
[9] = Rate 125 g/ha, under heading Pre-emergence, flood test species, visual evaluation after twelve to sixteen days
[10] = Rate 250 g/ha, Pre-emergence (flood test species), scale 0 to 10, 0 is no effect, 10 is complete control
[11] = Rate 500 g/ha, Pre-emergence section of Table B, 0 to 10 scale (0 no effect, 10 complete control)

CCc1nc(C)c(C(C)n2c(=O)on(C(=O)N(c3ccc(Cl)cc3)C(C)C)c2=O)s1 (stereo not drawn) [Compound 590]
B. signalgrass plant response rating (surinam grass; [1]): 0 | Plant response rating, B. signalgrass (surinam grass; [2]): 0 | B. signalgrass plant response rating (surinam grass; [3]): 0 | Plant response rating, B. signalgrass (surinam grass; [4]): 0 | B. signalgrass plant response rating (surinam grass; [5]): 0 | B. signalgrass plant response rating (surinam grass; [6]): 0 | B. signalgrass plant response rating (0 to 10 scale, 0 is no effect, 10 is complete control) (surinam grass; Preemergence, Rate 250 g/ha): 0 | B. signalgrass plant response rating (surinam grass; [7]): 0 | Plant response rating, Soybean (soybean; [2]): 1 | Soybean plant response rating (soybean; [3]): 3 | Plant response rating, Soybean (soybean; [4]): 3 | Soybean plant response rating (soybean; [5]): 0 | Soybean plant response rating (soybean; [6]): 0 | Soybean plant response rating (soybean; [7]): 0 | Bedstraw plant response rating (bedstraw): 0 | Plant response rating, Ducksalad (0 to 10 scale, 0 is no effect, 10 is complete control) (duck salad; [8]): 0 | Ducksalad plant response rating (0 to 10 scale, 0 is no effect, 10 is complete control) (duck salad; [9]): 0 | Ducksalad plant response rating (duck salad; [10]): 0 | Ducksalad plant response rating (duck salad; [11]): 0 | Morningglory plant response rating (morningglory; [1]): 2 | Plant response rating, Morningglory (morningglory; [2]): 3 | Morningglory plant response rating (morningglory; [3]): 3 | Plant response rating, Morningglory (morningglory; [4]): 4 | Morningglory plant response rating (morningglory; [5]): 0 | Morningglory plant response rating (morningglory; [6]): 0 | Morningglory plant response rating (morningglory; [7]): 0 | Plant response rating, Barnyardgrass (0 to 10 scale, 0 is no effect, 10 is complete control) (bamyardgrass; [8]): 0 | Barnyardgrass plant response rating (0 to 10 scale, 0 is no effect, 10 is complete control) (bamyardgrass; [9]): 0 | Barnyardgrass plant response rating (bamyardgrass; [10]): 0 | Barnyardgrass plant response rating (bamyardgrass; [11]): 0 | Nutsedge plant response rating (purple nutsedge; [1]): 0 | Plant response rating, Nutsedge (purple nutsedge; [2]): 0 | Nutsedge plant response rating (purple nutsedge; [3]): 0 | Plant response rating, Nutsedge (purple nutsedge; [4]): 0 | Nutsedge plant response rating (purple nutsedge; [5]): 0 | Nutsedge plant response rating (purple nutsedge; [6]): 0 | Nutsedge plant response rating (purple nutsedge; [7]): 0 | Plant response rating, Wild oats (wild oat; [2]): 0 | Wild oats plant response rating (wild oat; [3]): 0 | Plant response rating, Wild oats (wild oat; [4]): 0 | Wild oats plant response rating (wild oat; [5]): 0 | Wild oats plant response rating (wild oat; [6]): 0 | Wild oats plant response rating (wild oat; [7]): 0 | Plant response rating, Wheat (wheat; [2]): 0 | Wheat plant response rating (wheat; [3]): 0 | Plant response rating, Wheat (wheat; [4]): 0 | Wheat plant response rating (wheat; [5]): 0 | Wheat plant response rating (wheat; [6]): 0 | Wheat plant response rating (wheat; [7]): 0 | Plant response rating, Sugarbeets (sugar beet; [2]): 0 | Sugarbeets plant response rating (sugar beet; [3]): 0 | Plant response rating, Sugarbeets (sugar beet; [4]): 0 | Sugarbeets plant response rating (sugar beet; [5]): 0 | Sugarbeets plant response rating (sugar beet; [6]): 0 | Sugarbeets plant response rating (sugar beet; [7]): 0 | Plant response rating, Velvetleaf (velvetleaf; [2]): 0 | Velvetleaf plant response rating (velvetleaf; [3]): 2 | Plant response rating, Velvetleaf (velvetleaf; [4]): 2 | Velvetleaf plant response rating (velvetleaf; [5]): 0 | Velvetleaf plant response rating (velvetleaf; [6]): 0 | Velvetleaf plant response rating (velvetleaf; [7]): 0 | Plant response rating, S. Flatsedge (0 to 10 scale, 0 is no effect, 10 is complete control) (smallflower flatsedge; [8]): 0 | S. Flatsedge plant response rating (0 to 10 scale, 0 is no effect, 10 is complete control) (smallflower flatsedge; [9]): 0 | S. Flatsedge plant response rating (smallflower flatsedge; [10]): 0 | S. Flatsedge plant response rating (smallflower flatsedge; [11]): 0 | Corn plant response rating (corn; [1]): 0 | Plant response rating, Corn (corn; [2]): 0 | Corn plant response rating (corn; [3]): 0 | Plant response rating, Corn (corn; [4]): 0 | Corn plant response rating (corn; [5]): 0 | Corn plant response rating (corn; [6]): 0 | Corn plant response rating (0 to 10 scale) (corn; Preemergence, Rate 250 g/ha): 0 | Corn plant response rating (corn; [7]): 0 | Plant response rating, Redroot pigweed (pigweed; [2]): 0 | Redroot pigweed plant response rating (pigweed; [3]): 0 | Plant response rating, Redroot pigweed (pigweed; [4]): 0 | Redroot pigweed plant response rating (pigweed; [5]): 0 | Redroot pigweed plant response rating (pigweed; [6]): 0 | Redroot pigweed plant response rating (pigweed; [7]): 0 | Blackgrass plant response rating (blackgrass; [1]): 0 | Plant response rating, Blackgrass (blackgrass; [2]): 0 | Blackgrass plant response rating (blackgrass; [3]): 0 | Plant response rating, Blackgrass (blackgrass; [4]): 0 | Blackgrass plant response rating (blackgrass; [5]): 0 | Blackgrass plant response rating (blackgrass; [6]): 0 | Blackgrass plant response rating (0 to 10 scale) (blackgrass; Preemergence, Rate 250 g/ha): 0 | Blackgrass plant response rating (blackgrass; [7]): 0 | Plant response rating, Rice (0 to 10 scale, 0 is no effect, 10 is complete control) (rice; [8]): 0 | Rice plant response rating (0 to 10 scale, 0 is no effect, 10 is complete control) (rice; [9]): 0 | Rice plant response rating (rice; [10]): 0 | Rice plant response rating (rice; [11]): 0 | Giant foxtail plant response rating (giant foxtail; [1]): 0 | Plant response rating, Giant foxtail (giant foxtail; [2]): 0 | Giant foxtail plant response rating (giant foxtail; [3]): 0 | Plant response rating, Giant foxtail (giant foxtail; [4]): 0 | Giant foxtail plant response rating (giant foxtail; [5]): 0 | Giant foxtail plant response rating (giant foxtail; [6]): 0 | Giant foxtail plant response rating (giant foxtail; [7]): 7 | Crabgrass plant response rating (crabgrass; [1]): 0 | Plant response rating, Crabgrass (crabgrass; [2]): 0 | Crabgrass plant response rating (crabgrass; [3]): 0 | Plant response rating, Crabgrass (crabgrass; [4]): 2 | Crabgrass plant response rating (crabgrass; [5]): 0 | Crabgrass plant response rating (crabgrass; [6]): 0 | Crabgrass plant response rating (crabgrass; [7]): 3 | Cocklebur plant response rating (cocklebur; [1]): 0 | Plant response rating, Cocklebur (cocklebur; [2]): 0 | Cocklebur plant response rating (cocklebur; [3]): 0 | Plant response rating, Cocklebur (cocklebur; [4]): 0 | Cocklebur plant response rating (cocklebur; [5]): 0 | Cocklebur plant response rating (cocklebur; [6]): 0 | Cocklebur plant response rating (0 to 10 scale) (cocklebur; Preemergence, Rate 250 g/ha): 0 | Cocklebur plant response rating (cocklebur; [7]): 0 | Rape plant response rating (rape; [1]): 0 | Plant response rating, Rape (rape; [2]): 0 | Rape plant response rating (rape; [3]): 0 | Plant response rating, Rape (rape; [4]): 0 | Rape plant response rating (rape; [5]): 0 | Rape plant response rating (rape; [6]): 0 | Rape plant response rating (rape; [7]): 0
